# Source: patent publication US9163018B2, “Method of treatment of age-related macular degeneration (AMD)” (Prana Biotechnology Limited, priority 2006, dated 2015)
# Columns and labels:
# [1] = tested on: primary cortical neuronal cultured cells; assay: Test compound cytotoxicity, MTS assay, primary cortical neuronal cultures; type: cell-based, mouse; settings: for Cytotox (% viable) Neuronal cells at 1 μM: 1 μM test compound; for Cytotox (% viable) Neuronal cells at 10 μM: 10 μM test compound
# Procedure: Assay 2. Neurotoxicity Assays
# Primary Cortical Neuronal Cultures
# Media was then replaced with Neurobasal media (Invitrogen Life Technologies) and B27 supplements (Invitrogen Life Technologies). Cultures were maintained at 37° C. in 5% CO2. Prior to experimentation, the culture medium was replaced with Neurobasal media and B27 minus antioxidants (Invitrogen Life Technologies).
# (§1) Assay 3. MTS Assay for Cell Viability
# (§2) Cell viability is determined using the MTS assay. Culture medium is replaced with fresh neurobasal medium plus B27 supplements minus antioxidants. 1/10th volume MTS solution (Cell Titre 96 Aqueous One, Promega Corporation) and incubated at 37° C., 2 hrs. 200 microliter aliquots are measured with a spectrophotometer at 560 nm.
# Assay 4. Assay for Test Compound Cytoxicity
# Neuronal cortical cells were cultured for five days as per Assay 2 in NB media and B27 supplement.
# On day six the test compounds were added to the neuronal cell cultures in NB media and B27 supplement minus antioxidants.
# Test compounds were dissolved in 100% DMSO to a concentration of 2.5 mM (10 mM if excess compound was weighed out per vial—then diluted to 2.5 mM).
# Test compounds were not added directly to cells, instead they were added to a 48 well ‘Drug Plate’ as comprised below:
# The Drug Plate was incubated at 37° C. for 15 mins. 200 μl of each well was added in triplicate to the corresponding cell plate. The cell plate was incubated at 37 C, for 4 days.
# On completion of the assay, 1/10 volume MTS was added per well of plate (ie 25 μl/250 μl). The plates were incubated at 37 C for 2 hrs, and then absorbance was read at 560 nm.
# [2] = biological target: T1, Abeta:Zn (25:50 μM) Synthetic Aggregations (Homo sapiens, UniProt P05067); assay: Disaggregation of Abeta:Zn synthetic aggregates (ThT fluorescence); type: biochemical; settings: for Disaggregation % Aggregate reduction at 5 μM: 5 μM test compound; for EC50: Abeta:Zn 25:50 μM aggregates
# T1 construct: PB Compound Mediated Dissolution of Aggregated Abeta 1-42; purchased Keck Laboratory, Yale University School of Medicine
# T1 sequence (P05067 672-713 limits assumed): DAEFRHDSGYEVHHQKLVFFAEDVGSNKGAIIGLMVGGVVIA
# Procedure: PB Compound Mediated Dissolution of Aggregated Abeta 1-42
# Abeta1-42, is available from the Keck Laboratory, Yale University School of Medicine. PBS (pH 6.6): Sigma Cat# D-8662. Zn(ZnCl2): BDH Cat#100884E. (Dissolved in water in 1 mM concentration) DMSO: Ajax Cat#2225. Thioflavin T: Sigma Cat# T-3516. (Dissolved in water in 1 mM concentration)
# By way of example of an amyloid composition, Abeta is dissolved in distilled water and peptide concentration is assessed by measured absorption at 214 nm in UV spectrometer. An aggregation reactive mixture (per one concentration of one testing compound) is set us as follows: Abeta: 25 μM, ZnCl2 50 μM, ThT 50 μM, PBS to make up to 500 μl. The tube is wrapped with foil and incubated at 37 degrees by rotation for 24 hours. A serial dilution of each test compound is made up in DMSO, for example: 100 μM, 500 μM, 1000 μM, 2500 μM and 5000 μM. The final concentrations are 1, 5, 10, 25 and 50 μM, 5 μl of each of these compounds is placed in a centrifuge tube and 5 μl of DMSO is added to both negative and positive control tubes. 495 μl of aggregates (after 24 hours incubation) is added to the centrifuge tube. The negative control is PBS plus ZnCl2 and ThT and DMSO. The positive control is aggregates plus DMSO. The tubes are incubated at 37 degrees for further 2 hours with rotation. Samples are measured for ThT fluorescence using an LS55 (Perkin Elmer) fluorimeter in a cuvette (500 μl volume). The excitation wavelength is 450 nm and the emission wavelength is 480 nm. Data are analyzed using graph pad prism program. The tested compounds included so called “PB” compounds.
# Aβ 1-42 = biological target: T2, Aβ 1-42 (Homo sapiens, UniProt P05067); assay: Fluorometric H2O2 assay (inhibition of Abeta H2O2 production); type: biochemical; settings: concentration required to inhibit 50% of Abeta H2O2 production; read-out: H2O2 IC50
# T2 construct: The reaction solutions contained Aβ 1-42 at concentrations
# T2 sequence (P05067 672-713 limits assumed): as above
# Procedure: Assay 1. Fluorometric H2O2 Assay
# A fluorometric assay was used to test the ability of a test compound to inhibit hydrogen peroxide generation by Aβ in the presence of copper based on dichlorofluoroscein diacetate (DCF; Molecular Probes, Eugene Oreg.). The DCF solution (5 mM) in 100% dimethyl sulphoxide (previously purged with argon for 2 hr at 20° C.) was deacetylated in the presence of 0.25M NaOH for 30 min and neutralized at pH 7.4 to a final concentration of 1 mM. Horseradish peroxidase (HRP) stock solution was prepared to 1 μM at pH 7.4. The reactions were carried out in PBS, pH 7.4 in a 96 well plate (total volume=250 μl/well). […] The reaction mixture was incubated at 37 C for 60 min. […] H2O2 concentration may be established by comparing fluorescence with the H2O2 standards, Inhibition of Aβ H2O2 production was assayed by including a given concentration of test compound(s) in the test wells.
# [3] = tested on: M17 human neuroblastoma cells; assay: Cytotoxicity, M17 human neuroblastoma cells; type: cell-based; settings: for Cytotox (% viable) M17 cells at 1 μM: 1 μM test compound; for Cytotox (% viable) M17 cells at 10 μM: 10 μM test compound
# Procedure: as §1, §2
# [4] = tested on: Abeta in extract of post-mortem human AD brain tissue; assay: BAS: human brain amyloid solubilization assay; type: biochemical; settings: max effect across the concentration range, referenced to baseline PBS
# Procedure: Assay 5. Human Brain Amyloid Solubilization Assay
# This assay was performed in order to assess the ability of a test compound to mobilise Aβ, as an example form of amyloid, from the insoluble to the soluble phase of an extract of tissue from post mortem human AD brain.
# Up to 0.5 g of plaque-bearing cortex without meninges was homogenized using a DIAX 900 homogenizer (Hendolph and Co, Kelheim, Germany) or other suitable device for three 30-second periods at full speed in 2 ml of ice-cold phosphate-buffered saline, pH 7.4. To obtain the phosphate-buffered saline-extractable fraction, the homogenate was centrifuged at 100,000×g for 30 min and the supernatant removed. Alternatively, the tissue was freeze dried then pulverized to form a powder which was then weighed out into aliquots for extraction as above. Supernatant, either freeze-dried and resuspended or in unconcentrated form, was dissolved in 200 μl of Tris-Tricine sodium dodecyl sulfate (SDS) sample buffer pH 8.3 containing 8% SDS, 10% 2-mercaptoethanol. Aliquots (10 μl) were then boiled for 10 minutes before SDS-polyacrylamide gel electrophoresis. The insoluble fraction of the cortical samples was obtained by resuspending the initial pelleted sample in 1 ml of phosphate-buffered saline, A 50-μl aliquot of this suspension was then boiled in […] of sample buffer as above.
# Tris-Tricine polyacrylamide gel electrophoresis was performed by loading appropriately diluted samples on to 10% to 20% gradient gels (Novex, San Diego, Calif.) followed by transfer on to 0.2-μm nitrocellulose membrane (Bio-Rad, Hercules, Calif.). Aβ was detected by using monoclonal antibody W02, which detects residues 5 through 8, […] (or another suitable antibody) in conjunction with horseradish peroxidase-conjugated rabbit anti-mouse IgG (Dako, Denmark), and visualized by using enhanced chemiluminescence (eg ECL; Amersham Life Science, Buckinghamshire, UK). Each gel included three lanes containing 0.5, 1, and 2 ng of synthetic Aβ40 (Keck Laboratory, Yale University, New Haven, Conn.) as reference standards.
# Blot films were scanned by using a suitable imaging system such as the UVP gel documentation system, and densitometry performed using suitable software, eg UVP Labworks. The dynamic range of the film/scanner was determined by using a step tablet (No. 911ST600, Kodak, Rochester N.Y.), a calibrated film exposed by the manufacturer to provided steps of known increasing intensity. The quantifiable range of signal intensity for densitometric analysis of the mono- and dimeric Aβ bands was based on the comparison with a curve obtained by scanning and densitometry of the step tablet.
# All samples were analyzed at least twice, and gel loadings and dilutions were adjusted to fit within the quantifiable region of the standard curve. The proportion of ‘soluble’ to ‘insoluble’ Aβ may be used to determine the efficiency of extraction of a test compound compared with the efficiency of a known compound. The insoluble Aβ being comprised of the pelletable fraction derived from the insoluble amyloid plaque from the above cortical samples and the soluble fraction comprising monomeric and/or oligomeric soluble Aβ.
structure (smiles),measurement,setting,value
CNCc1ccc2c(Cl)cc(Cl)c(O)c2n1.Cl [PB 1104],Cytotox (% viable) Neuronal cells at 1 μM,[1],86%
same,Cytotox (% viable) Neuronal cells at 10 μM,[1],78%
same,Disaggregation % Aggregate reduction at 5 μM,[2],19.1%
same,EC50,[2],> 20 µM
same,IC50,Aβ 1-42,0.35 µM
CCn1cnc2c(O)c(Cl)cc(Cl)c2c1=O [PB 1115],Cytotox (% viable) Neuronal cells at 1 μM,[1],93%
same,Cytotox (% viable) Neuronal cells at 10 μM,[1],58%
same,Cytotox (% viable) M17 cells at 1 μM,[3],104.3%
same,Cytotox (% viable) M17 cells at 10 μM,[3],95.9%
same,Disaggregation % Aggregate reduction at 5 μM,[2],17%
same,EC50,[2],> 20 µM
same,IC50,Aβ 1-42,0.95 µM
Cc1cccc(-c2cc(Cl)c3cccnc3c2O)c1 [PB 859],Cytotox (% viable) Neuronal cells at 1 μM,[1],98%
same,Cytotox (% viable) Neuronal cells at 10 μM,[1],73%
same,IC50,Aβ 1-42,< 0.67 µM
same,BAS max effect,[4],266%
COc1ccccc1-c1cc(I)c(O)c2ncccc12 [PB 863],Cytotox (% viable) Neuronal cells at 1 μM,[1],91%
same,Cytotox (% viable) Neuronal cells at 10 μM,[1],35%
same,IC50,Aβ 1-42,< 0.73 µM
same,BAS max effect,[4],386%
CN(CCc1ccccn1)Cc1ccc2cccc(O)c2n1 [PB 990],Cytotox (% viable) Neuronal cells at 1 μM,[1],97%
same,Cytotox (% viable) Neuronal cells at 10 μM,[1],57%
same,IC50,Aβ 1-42,0.4 µM
same,BAS max effect,[4],183%
O=C(NCCc1ccccn1)c1ccc2cccc(O)c2n1 [PB 950],Cytotox (% viable) Neuronal cells at 1 μM,[1],95%
same,Cytotox (% viable) Neuronal cells at 10 μM,[1],93%
same,IC50,Aβ 1-42,0.15 µM
same,BAS max effect,[4],741%
O=c1ccnc2c(O)cccn12 [PB 1048],BAS max effect,[4],257%
O=c1c(-c2ccc(Cl)cc2)cnc2c(O)cccn12 [PB 1069],Cytotox (% viable) Neuronal cells at 1 μM,[1],97%
same,Cytotox (% viable) Neuronal cells at 10 μM,[1],42%
same,Cytotox (% viable) M17 cells at 1 μM,[3],41.2%
same,Cytotox (% viable) M17 cells at 10 μM,[3],25.8%
same,Disaggregation % Aggregate reduction at 5 μM,[2],34.8%
same,EC50,[2],11.3 µM
same,IC50,Aβ 1-42,0.48 µM
O=c1[nH]cnc2c(O)cccc12 [PB 1049],BAS max effect,[4],237%
Cc1ccc2c(c1)sc(-c1ccc(N(C)C)cc1)[n+]2C [PB 982],BAS max effect,[4],188%
CCN(CC)Cc1ccc2c(Cl)cc(Cl)c(O)c2n1.Cl [PB 1106],Cytotox (% viable) Neuronal cells at 1 μM,[1],74%
same,Cytotox (% viable) Neuronal cells at 10 μM,[1],70%
same,Disaggregation % Aggregate reduction at 5 μM,[2],17.9%
same,EC50,[2],14.2 µM
same,IC50,Aβ 1-42,0.4 µM
Cn1cnc2c(O)cccc21 [PB 1041],BAS max effect,[4],319%
COC(=O)c1nc(Cl)c2cccnc2c1O [PB 1045],BAS max effect,[4],166%
CN(C)c1ccc(/C=C/c2nc3ccccc3s2)cc1 [PB 985],BAS max effect,[4],265%
O=C(O)c1ccccc1Nc1cccc(C(F)(F)F)c1 [PB 233],IC50,Aβ 1-42,> 10 µM
same,BAS max effect,[4],330%
Oc1cccc2cc3ccccc3nc12 [PB 1043],BAS max effect,[4],175%
Br.Oc1cccc2c(=S)n(Cc3ccccn3)cnc12 [PB 1113],Cytotox (% viable) Neuronal cells at 1 μM,[1],97%
same,Cytotox (% viable) Neuronal cells at 10 μM,[1],90%
same,Disaggregation % Aggregate reduction at 5 μM,[2],25.5%
same,EC50,[2],> 20 µM
same,IC50,Aβ 1-42,3.2 µM
O=C(NC(=S)Nc1cccc2cccnc12)c1ccccc1 [PB 915],IC50,Aβ 1-42,1.9 µM
same,BAS max effect,[4],202%
Oc1c(I)cc(I)c2cccnc12 [PB 46],Cytotox (% viable) Neuronal cells at 1 μM,[1],91%
same,Cytotox (% viable) Neuronal cells at 10 μM,[1],95%
same,Disaggregation % Aggregate reduction at 5 μM,[2],58.7%
same,EC50,[2],4.1 µM
same,IC50,Aβ 1-42,0.4 µM
Oc1cc2cccnc2c2cccnc12 [PB 1026],IC50,Aβ 1-42,0.23 µM
same,BAS max effect,[4],186%
C1CNCCSCCN1 [PB 942],IC50,Aβ 1-42,< 0.1 µM
same,BAS max effect,[4],220%
Cc1ccc2nc(-c3ccc(N(C)C)cc3)sc2c1 [PB 983],BAS max effect,[4],278%
CCOC(=O)c1cnc2c(O)c(CC)ncc2c1 [PB 1116],Cytotox (% viable) Neuronal cells at 1 μM,[1],103%
same,Cytotox (% viable) Neuronal cells at 10 μM,[1],92%
same,Disaggregation % Aggregate reduction at 5 μM,[2],16.8%
same,EC50,[2],> 20 µM
same,IC50,Aβ 1-42,1.63 µM
OC1=NN=CC2C=CC=NC12 (stereo not drawn) [PB 1044],BAS max effect,[4],212%
CCCCc1ccc2ccc3ccc(CCCC)nc3c2n1 [PB 847],IC50,Aβ 1-42,< 2.5 µM
same,BAS max effect,[4],271%
CCN(CC)c1ccc2cc(-c3nc4ccccc4s3)c(=O)oc2c1 [PB 981],BAS max effect,[4],580%
Oc1cccc2nc3ccccc3nc12 [PB 1027],BAS max effect,[4],306%
COC(=O)c1nc(O)c2cccnc2c1O [PB 1046],BAS max effect,[4],244%
CCN(CC)C(=O)Cn1cnc2c(O)c(I)ccc2c1=O [PB 1167],Cytotox (% viable) M17 cells at 1 μM,[3],92.2%
same,Cytotox (% viable) M17 cells at 10 μM,[3],98.7%
same,Disaggregation % Aggregate reduction at 5 μM,[2],39.3%
same,EC50,[2],7.4 µM
same,IC50,Aβ 1-42,0.39 µM
Nc1ccccc1NC(=O)c1cc(O)c2cccc(O)c2n1 [PB 986],Cytotox (% viable) Neuronal cells at 1 μM,[1],98%
same,Cytotox (% viable) Neuronal cells at 10 μM,[1],82%
same,Disaggregation % Aggregate reduction at 5 μM,[2],28%
same,EC50,[2],18.4 µM
same,IC50,Aβ 1-42,3.6 µM
